According to publication PMC11349198, “The activation cascade of the broad-spectrum antiviral bemnifosbuvir characterized at atomic resolution” (PLOS Biology, 2024):

Columns and labels:
HINT1 = target: T1, HINT1 (Homo sapiens, UniProt P49773); assay: ITC; assay type: binding; details: 1-site model
T1 construct: N-terminal 6xHis with TEV site, tag cut; E. coli; homodimer, 126 residues visible

ADALP1 = target: T2, ADALP1 (Homo sapiens, UniProt Q6DHV7); assay: X-ray crystal structure, […] Å; assay type: binding; details: co-crystallized with AT-8003 (10 mM), pH 5.3 to 6.3; Zn2+; active site
T2 construct: gene MAPDA; N-terminal 6xHis with TEV site, tag cut; E. coli; monomer; Zn; crystals grown with trace alpha-chymotrypsin
T2 sequence (Q6DHV7 1-355): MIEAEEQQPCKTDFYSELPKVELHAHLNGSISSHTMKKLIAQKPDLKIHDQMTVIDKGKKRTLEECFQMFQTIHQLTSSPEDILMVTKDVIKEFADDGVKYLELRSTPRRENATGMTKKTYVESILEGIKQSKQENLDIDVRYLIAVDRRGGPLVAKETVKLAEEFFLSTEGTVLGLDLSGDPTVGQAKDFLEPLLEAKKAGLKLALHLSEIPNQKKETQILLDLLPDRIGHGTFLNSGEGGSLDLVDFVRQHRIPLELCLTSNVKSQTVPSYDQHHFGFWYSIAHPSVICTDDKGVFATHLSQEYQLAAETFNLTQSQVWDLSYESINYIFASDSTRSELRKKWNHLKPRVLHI

T1 sequence (P49773 whole entry): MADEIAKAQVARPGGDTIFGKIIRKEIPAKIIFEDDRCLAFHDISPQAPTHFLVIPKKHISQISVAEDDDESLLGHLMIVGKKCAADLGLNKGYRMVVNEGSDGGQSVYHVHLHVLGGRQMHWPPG

**Q.** Which Ka (HINT1) does the source give for Nc1ncnc2c1ncn2[C@@H]1O[C@H](COP(=O)(O)O)[C@@H](O)[C@H]1O [AMP] here?
**A.** 1.7 10^4

**Q.** C[C@@]1(F)[C@H](O)[C@@H](COP(=O)(O)O)O[C@H]1n1cnc2c(=O)[nH]c(N)nc21 [AT-8001] was tested. Which “X-ray crystal structure, 2.44 Å” value (ADALP1) did it give?
**A.** the product AT-8001 was found bound at the active site
